Measured values: US11390603B2, “Crystalline forms of a biphenyl compound” (THERAVANCE BIOPHARMA R&D IP, LLC, priority 2005, dated 2022)

Assays:
[1] = target: T1, hM3 receptor (Homo sapiens, UniProt P20309); test: Blockade of agonist-mediated calcium release via FLIPR; assay type: cell-based; conditions: CHO cells stably expressing the hM3 receptor; this or a similar assay
T1 construct: expressed in transfected cells
From the text: Muscarinic receptor subtypes (M1, M3 and M5 receptors), which couple to Gq proteins, activate the phospholipase C (PLC) pathway upon agonist binding to the receptor. As a result, activated PLC hydrolyzes phosphatyl inositol diphosphate (PIP2) to diacylglycerol (DAG) and […] (IP3), which in turn generates calcium release from intracellular stores, i.e., endoplasmic and sarcoplasmic reticulum. The FLIPR (Molecular Devices, Sunnyvale, Calif.) assay capitalizes on this increase in intracellular calcium by using a calcium sensitive dye (Fluo-4AM, Molecular Probes, Eugene, Oreg.) that fluoresces when free calcium binds. This fluorescence event is measured in real time by the FLIPR, which detects the change in fluorescence from a monolayer of cells cloned with human M1 and M3, and chimpanzee M5 receptors. Antagonist potency can be determined by the ability of antagonists to inhibit agonist-mediated increases in intracellular calcium. […]
To determine antagonist potency, the dose-dependent stimulation of intracellular Ca^2+ release for oxotremorine is first determined so that antagonist potency can later be measured against oxotremorine stimulation at an EC90 concentration. […]
The change of fluorescence is expressed as maximum fluorescence minus baseline fluorescence for each well. […]

[2] = test system: guinea pigs; test: Duration of bronchoprotection in guinea pig model of acetylcholine-induced bronchoconstriction; assay type: in vivo; conditions: 1.5 hours post-dose, inhalation
Protocol: Groups of six male guinea pigs (Duncan-Hartley (HsdPoc:DH) Harlan, Madison, Wis.) weighing between 250 and 350 g are individually identified by cage cards. Throughout the study animals are allowed access to food and water ad libitum.
Test compounds are administered via inhalation over 10 minutes in a whole-body exposure dosing chamber (R&S Molds, San Carlos, Calif.). The dosing chambers are arranged so that an aerosol was simultaneously delivered to 6 individual chambers from a central manifold. Guinea pigs are exposed to an aerosol of a test compound or vehicle (WFI). […] This is measured gravimetrically by comparing pre-and post-nebulization weights of the filled nebulizer.
The bronchoprotective effects of test compounds administered via inhalation are evaluated using whole body plethysmography at 1.5, 24, 48 and 72 hours post-dose.
Forty-five minutes prior to the start of the pulmonary evaluation, each guinea pig is anesthetized with an intramuscular injection of ketamine (43.75 mg/kg), xylazine (3.50 mg/kg) and acepromazine (1.05 mg/kg). […] The depth of anesthesia is monitored and adjusted if the animal responds to pinching of its paw or if the respiration rate is greater than 100 breaths/minute. […]
Starting this program initiates the experimental protocol and data collection. […] By integrating this signal over time, a measurement of […] is calculated for each breath. […]

T1 sequence (P20309 whole entry): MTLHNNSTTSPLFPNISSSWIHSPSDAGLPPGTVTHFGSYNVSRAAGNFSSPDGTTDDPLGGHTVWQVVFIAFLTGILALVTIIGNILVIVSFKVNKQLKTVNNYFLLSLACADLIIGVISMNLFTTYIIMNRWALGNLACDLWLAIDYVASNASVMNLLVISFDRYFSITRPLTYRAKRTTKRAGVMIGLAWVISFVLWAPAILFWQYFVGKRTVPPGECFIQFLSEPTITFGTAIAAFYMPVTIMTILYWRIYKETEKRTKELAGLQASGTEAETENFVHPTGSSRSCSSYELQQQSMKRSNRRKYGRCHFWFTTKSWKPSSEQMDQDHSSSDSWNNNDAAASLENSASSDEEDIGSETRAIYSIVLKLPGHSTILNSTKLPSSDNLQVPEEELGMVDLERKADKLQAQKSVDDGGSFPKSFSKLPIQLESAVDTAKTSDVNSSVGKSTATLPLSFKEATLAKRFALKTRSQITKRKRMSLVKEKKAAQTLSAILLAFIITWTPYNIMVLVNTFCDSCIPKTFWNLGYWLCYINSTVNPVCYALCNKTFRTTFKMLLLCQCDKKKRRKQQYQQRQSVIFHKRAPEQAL

## CN(CCN1CCC(OC(=O)Nc2ccccc2-c2ccccc2)CC1)C(=O)c1ccc(CN2CCC(C(N)=O)CC2)cc1 [compound of formula I, biphenyl-2-ylcarbamic acid 1-(2-{[4-(4-carbamoylpiperidin-1-ylmethyl)benzoyl]methylamino}ethyl)piperidin-4-yl ester]
[1]
  Ki: < 5 nM
[2]
  PD2(50) for ACh-induced bronchoconstriction: less than 200 μg/mL
